Measurements: PubChem BioAssay AID1918999 (Molecular Pharmacology Branch, DTP, NCI, 2023)

Test system: 556581-035-R-J1-PDC complex spheroid growth
Assay: Anticancer human tumor 556581-035-R-J1-PDC patient-derived ovarian carcinoma cell line growth inhibition [AhR]
Settings: for IC50: curve of first compound; for viability, T/C: stronger effect = lower value
Source text: Multicellular complex tumor spheroid response to aryl hydrocarbon receptor antagonists in combination with a variety of drugs and investigational agents in selected tumor cell lines
The current study was undertaken to assess response to aryl hydrocarbon receptor antagonists in combination with standard-of-care drugs and investigational agents in solid tumor complex spheroid models. Complex spheroids include a stromal component modeled by human endothelial cells (HUVEC) and fibroblasts modeled by human mesenchymal stem cells (MSCs). The concentration ranges selected for each drug and investigational agent were based upon clinically achievable concentrations if the clinical Cmax of the agent was known.
Compounds. The drugs and investigational agents: BAY 2416964 (NSC825713), GNF351 (NSC835774), CH-223191 (NSC835775), CPI-455 (NSC825282), aza-TdCyd (NSC777586), decitabine (NSC127716), belinostat (NSC758774), entinostat (NSC756642), pevonedistat (NSC761192), tazemetostat (NSC777109), talazoparib (NSC765396), olaparib (NSC753686), selinexor (NSC780203), nedisertib (M3814, NSC802822), bortezomib (NSC756655), venetoclax (NSC766270), doxorubicin (NSC123127), elimusertib (BAY189344, NSC800525), ceralasertib (AZD6738, NSC777638), TAK-243 (NSC785004), alisertib (NSC759677), etoposide (NSC141540), topotecan (NSC609699), eribulin (NSC707389), gemcitabine (NSC613327), carboplatin (NSC241240), cisplatin (NSC119875), and SN-38 (NSC673596) were obtained from the National Cancer Institute (NCI) Developmental Therapeutics Program Chemical Repository (32). The FDA-approved anticancer drug set is available from the Developmental Therapeutics Program at https://dtp.cancer.gov/organization/dscb/obtaining/available plates.htm. […] The stock solutions were prepared in dimethyl sulfoxide (DMSO, Sigma-Aldrich, St. Louis, MO, cat. D2650), except for the platinum compounds which were prepared in saline (Quality Biological, Gaithersburg, MD, cat. 114-055-101), at 800-fold the tested concentration and stored at -70 degrees C prior to their use. All drugs and investigational agents were tested over a range starting from a high concentration at or near the clinical Cmax and decreasing in half-log increments. If the clinical Cmax for an agent had not been determined, the highest concentration tested was 10 microM (Table 1).
Cell Culture. All cells were maintained in an incubator at 37 degrees C and 5% CO2 with 95% humidity. The PDC lines were cultured according to standard operating procedures established by the NCI PDMR (https://pdmr.cancer.gov). Briefly, all PDCs were thawed and cultured in Matrigel-coated flasks prepared with a working solution of 1X Ham's F-12 nutrient mix, without supplementation (Invitrogen, Waltham, MA, cat. 11765054), 100 U/mL penicillin-streptomycin (Invitrogen, cat. 15140122), and 2.5% Matrigel (Corning Inc., Corning, NY, cat. 354248) for the first three passages. All PDCs were cultured in complete DMEM/F-12 media containing advanced DMEM/F-12 (Invitrogen, cat. 12634028), 4.9% defined fetal bovine serum, heat inactivated (HyClone Laboratories Inc., Logan, UT, cat. SH30070.03HI), 389 ng/mL hydrocortisone (Sigma-Aldrich, cat. H4001), 9.7 ng/mL human EGF recombinant protein (Invitrogen, cat. PHG0313), 23.4 microg/mL adenine (Sigma-Aldrich, cat. A2786), 97.3 U/mL penicillin-streptomycin (Invitrogen, cat. 15140122), 1.9 mM L-glutamine (Invitrogen, cat. 25030081), and 9.7 microM Y-27632 dihydrochloride (Tocris Bioscience, Bristol, United Kingdom, cat. 1254). The PDCs were cultured in complete DMEM/F12 media without 10 microM Y-27632 dihydrochloride for at least two passages prior to the screen. The established cell lines NCI-H1341 and […] were cultured in DMEM/F-12, HEPES (Invitrogen, cat. 11330032), 5% defined fetal bovine serum (HyClone Laboratories Inc., cat. SH30070.03), ITS premix universal culture supplement [insulin (5 microg/mL), transferrin (5 microg/mL), and selenious acid (5 ng/mL)] […]

[1] = second compound 0.1 µM, first compound 0.0316 µM
[2] = second compound 0.1 µM, first compound 0.1 µM
[3] = second compound 0.1 µM, first compound 0.316 µM
[4] = second compound 0.1 µM, first compound 1 µM
[5] = second compound 0.316 µM, first compound 0.0316 µM
[6] = second compound 0.316 µM, first compound 0.1 µM
[7] = second compound 0.316 µM, first compound 0.316 µM
[8] = second compound 0.316 µM, first compound 1 µM
[9] = second compound 1 µM, first compound 0.0316 µM
[10] = second compound 1 µM, first compound 0.1 µM
[11] = second compound 1 µM, first compound 0.316 µM
[12] = second compound 1 µM, first compound 1 µM
[13] = second compound 3.16 µM, first compound 0.0316 µM
[14] = second compound 3.16 µM, first compound 0.1 µM
[15] = second compound 3.16 µM, first compound 0.316 µM
[16] = second compound 3.16 µM, first compound 1 µM
[17] = second compound 10 µM, first compound 0.0316 µM
[18] = second compound 10 µM, first compound 0.1 µM
[19] = second compound 10 µM, first compound 0.316 µM
[20] = second compound 10 µM, first compound 1 µM
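Wherever viability, T/C is given: compound exposure lasted 7 days; 100% = DMSO vehicle control growth.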

| SMILES | IC50 (second compound 0.1 µM) [nM] | IC50 (second compound 0.316 µM) [nM] | IC50 (second compound 1 µM) [nM] | IC50 (second compound 3.16 µM) [nM] | IC50 (second compound 10 µM) [nM] | viability, T/C [1] [%] | viability, T/C [2] [%] | viability, T/C [3] [%] | viability, T/C [4] [%] | viability, T/C [5] [%] | viability, T/C [6] [%] | viability, T/C [7] [%] | viability, T/C [8] [%] | viability, T/C [9] [%] | viability, T/C [10] [%] | viability, T/C [11] [%] | viability, T/C [12] [%] | viability, T/C [13] [%] | viability, T/C [14] [%] | viability, T/C [15] [%] | also measured |
| --- | --- | --- | --- | --- | --- | --- | --- | --- | --- | --- | --- | --- | --- | --- | --- | --- | --- | --- | --- | --- | --- |
| COc1cccc2c1C(=O)c1c(O)c3c(c(O)c1C2=O)CC(O)(C(=O)CO)CC3OC1CC(N)C(O)C(C)O1 (stereo not given) + CC(CO)NC(=O)c1cc(-c2ccc(Cl)cc2)nn(-c2cnn(C)c2)c1=O | 393 | 396 | 445 | 375 | 361 | 89.7 | 80.7 | 58.7 | 16.1 | 83.9 | 79.3 | 58.1 | 17.5 | 85 | 87.3 | 64.8 | 14.5 | 75.8 | 79.4 | 55.9 | viability, T/C (second compound 0.1 µM, first compound 3.16 µM): 3.94%; viability, T/C (second compound 0.1 µM, first compound 10 µM): 3.84%; viability, T/C (second compound 0.316 µM, first compound 3.16 µM): 4.59%; viability, T/C (second compound 0.316 µM, first compound 10 µM): 3.12%; viability, T/C (second compound 1 µM, first compound 3.16 µM): 3.33%; viability, T/C (second compound 1 µM, first compound 10 µM): 3.66%; viability, T/C [16]: 13.1%; viability, T/C (second compound 3.16 µM, first compound 3.16 µM): 4.03%; viability, T/C (second compound 3.16 µM, first compound 10 µM): 3.23%; viability, T/C [17]: 88.9%; viability, T/C [18]: 87%; viability, T/C [19]: 56%; viability, T/C [20]: 3.3%; viability, T/C (second compound 10 µM, first compound 3.16 µM): 1.46%; viability, T/C (second compound 10 µM, first compound 10 µM): 3.96% |
| Nc1ncn(C2CC(O)C(CO)O2)c(=O)n1 (stereo not given) + CC(CO)NC(=O)c1cc(-c2ccc(Cl)cc2)nn(-c2cnn(C)c2)c1=O | > 1000 | > 1000 | > 1000 | > 1000 | > 1000 | 84.9 | 77.1 | 78.7 | 70.4 | 84.3 | 78.4 | 71.9 | 72.4 | 85.3 | 81.8 | 72.3 | 72.2 | 87.3 | 75.2 | 70.1 | viability, T/C (second compound 0.1 µM, first compound 0.00316 µM): 92.5%; viability, T/C (second compound 0.1 µM, first compound 0.01 µM): 89.9%; viability, T/C (second compound 0.316 µM, first compound 0.00316 µM): 88.4%; viability, T/C (second compound 0.316 µM, first compound 0.01 µM): 95%; viability, T/C (second compound 1 µM, first compound 0.00316 µM): 85%; viability, T/C (second compound 1 µM, first compound 0.01 µM): 104%; viability, T/C (second compound 3.16 µM, first compound 0.00316 µM): 95.4%; viability, T/C (second compound 3.16 µM, first compound 0.01 µM): 90.7%; viability, T/C [16]: 68.9%; viability, T/C (second compound 10 µM, first compound 0.00316 µM): 97.5%; viability, T/C (second compound 10 µM, first compound 0.01 µM): 99.6%; viability, T/C [17]: 92.3%; viability, T/C [18]: 81.8%; viability, T/C [19]: 80%; viability, T/C [20]: 77.1% |
